Earlier results, collected in patent US20220370535A1, “ANTIVIRAL ESSENTIAL OIL COMPOSITIONS” (priority 2020, published 2022).

How the values were obtained:
SARS-CoV-2, Mpro = SARS-CoV-2, Mpro (Severe acute respiratory syndrome coronavirus 2, UniProt P0DTD1); conditions: nelfinavir, pitavastatin, perampanel, praziquantel compared
SARS-CoV-2 = conditions: inhibition of the virus in cell-based assay

Structure (SMILES) | inhibitor ranking among 4 tested drugs (SARS-CoV-2, Mpro) | EC50 (SARS-CoV-2) [nM]
Cc1c(O)cccc1C(=O)N[C@@H](CSc1ccccc1)[C@H](O)CN1C[C@H]2CCCC[C@H]2C[C@H]1C(=O)NC(C)(C)C [nelfinavir] | most potential inhibitor | 
CCN(CC)CCCC(C)Nc1ccnc2cc(Cl)ccc12 (centres unmarked) [chloroquine] |  | 1130
